Our source for the EC50 values is ChEMBL document CHEMBL4196156, “Allosteric Modulators of the M4 Muscarinic Acetylcholine Receptor” (ACS Med Chem Lett, 2018).

The term EC50 denotes the concentration that produces a half-maximal response.

Molecules are shown by their SMILES.

The experiment has as its target T1, Muscarinic acetylcholine receptor M4 (Homo sapiens, UniProt P08173).
T1 sequence (P08173 whole entry): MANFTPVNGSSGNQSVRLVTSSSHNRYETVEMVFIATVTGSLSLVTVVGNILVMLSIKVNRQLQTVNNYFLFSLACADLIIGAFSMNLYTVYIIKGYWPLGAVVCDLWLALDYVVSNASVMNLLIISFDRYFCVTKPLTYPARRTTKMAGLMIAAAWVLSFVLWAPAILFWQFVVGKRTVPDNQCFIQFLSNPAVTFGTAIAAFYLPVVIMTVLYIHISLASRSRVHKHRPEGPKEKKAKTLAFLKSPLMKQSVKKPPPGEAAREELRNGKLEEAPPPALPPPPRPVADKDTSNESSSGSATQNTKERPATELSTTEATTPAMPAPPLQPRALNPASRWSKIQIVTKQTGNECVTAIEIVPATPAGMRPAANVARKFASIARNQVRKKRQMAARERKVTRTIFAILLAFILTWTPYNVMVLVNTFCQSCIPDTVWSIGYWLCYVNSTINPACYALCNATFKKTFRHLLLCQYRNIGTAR
Put plainly: Positive allosteric modulation of human muscarinic acetylcholine receptor M4 expressed in CHO-K1 cells coexpressing Galphaqi5 assessed as increase in acetylcholine-induced […] incubated for 16 to 20 hrs measured for 3.5 to 4 mins by FLIPR assay. In kind it is functional, cell-based.
Take `COc1ccc(OC2CCN(c3nc(CO)nc(Cl)c3C)CC2)cn1`: the EC50 was found to be 25 nM. As for `COc1ccc(OC2CCN(c3nc4oc(=O)[nH]c(=O)c4c(Cl)c3C)CC2)cn1`, the figure is 15 nM. As for `Cc1cc2c(nc1N1CC[C@@H](Oc3ccc4c(cnn4C)c3)[C@@H](F)C1)CNC2=O`, the figure is 17 nM.
